Results reported in patent US20020028224A1, “Cosmetic compositions containing substituted amide derivatives” (Unilever Home & Personal Care USA, Division of Conopco, Inc., priority 2000, published 2002).
Several values for one entry are separate records, joined by “and”; a condition that tells them apart may be missing. Identical values can stand only once. Like-named read-outs stand apart in the source and are kept apart here.

Tested on: human sebocytes
Assay: Sebum suppression: 14C-acetate label remaining in cultured human sebocytes
Assay type: cell-based
Conditions: for activity at 1 µM / activity at 10 µM / activity at 0.1 µM / activity at 28 µM / activity at 280 µM / activity at 50 µM: Homo sapiens; for activity at 1 µM / activity at 10 µM / activity at 0.1 µM / activity at 50 µM: read-out: % of Control; for sebum suppressive activity in the presence of a retinoid / combined with retinol: summary in words, combined with retinol versus compound alone
[1] = Experiment A, 1 μM test compound + 10 μM Retinol
[2] = Experiment A, 1 μM test compound alone
[3] = Experiment A, 10 μM test compound + 10 μM Retinol
[4] = Experiment A, 10 μM test compound alone
[5] = Experiment B, 0.1 μM test compound + 1 μM Retinol
[6] = Experiment B, 0.1 μM test compound + 10 μM Retinol
[7] = Experiment B, 0.1 μM test compound alone
[8] = Experiment B, 1 μM test compound + 1 μM Retinol
[9] = Experiment B, 1 μM test compound + 10 μM Retinol
[10] = Experiment B, 1 μM test compound alone
[11] = Experiment B, 10 μM test compound + 1 μM Retinol
[12] = Experiment B, 10 μM test compound + 10 μM Retinol
[13] = Experiment B, 10 μM test compound alone
[14] = Experiment A, 28 μM Phenol Red (positive control)
[15] = Experiment B, 280 μM Phenol Red (positive control)
[16] = Experiment A, 1 μM test compound + 1 μM Retinol
[17] = Experiment A, 10 μM test compound + 1 μM Retinol

| Compound | activity at 1 µM [1] | activity at 1 µM [2] | activity at 10 µM [3] | activity at 10 µM [4] | activity at 0.1 µM [5] | activity at 0.1 µM [6] | activity at 0.1 µM [7] | activity at 1 µM [8] | activity at 1 µM [9] | activity at 1 µM [10] | activity at 10 µM [11] | activity at 10 µM [12] | activity at 10 µM [13] | sebum suppressive activity in the presence of a retinoid / combined with retinol | activity at 1 µM [16] | activity at 10 µM [17] | further results |
| --- | --- | --- | --- | --- | --- | --- | --- | --- | --- | --- | --- | --- | --- | --- | --- | --- | --- |
| Cc1cccc(O)c1NC(=O)OC1CC(C)CCC1C(C)C (centres unmarked) [Compound C] | 66.5% | 70.1% | 0.2% | 0.2% | 94% | 88.6% | 97.9% | 78.2% | 68.8% | 75.3% | 0.4% | 0.4% | 0.4% |  |  |  |  |
| O=S1(=O)OC(c2ccc(O)cc2)(c2ccc(O)cc2)c2ccccc21 [Phenol Red, phenol red, reference compound] |  |  |  |  |  |  |  |  |  |  |  |  |  |  |  |  | % of Control [14]: 95.3%; % of Control [15]: 46.5% and 52.2% and 54.9% and 56.8%; activity at 28 µM [14]: 75.5%; activity at 280 µM (Experiment A, 280 μM Phenol Red (positive control)): 15.9%; activity at 28 µM (Experiment B, 28 μM Phenol Red (positive control)): 86.4%; activity at 280 µM [15]: 52.5%; activity at 280 µM (Table 7, 280 μM Phenol Red (positive control)): 13.2% |
| Cc1cccc(N2CCN(C(=O)CC3C=CC(CC(=O)N4CCN(c5cccc(C)c5)C(C)C4)C3)CC2C)c1 (centres unmarked) [Compound G] |  |  |  |  |  |  |  |  |  |  |  |  |  | improved sebum suppressive activity |  |  | activity at 10 µM (96 Well Plate, 10 μM test compound + 1 μM Retinol): 70.3%; activity at 10 µM (96 Well Plate, 10 μM test compound alone): 102%; activity at 50 µM (96 Well Plate, 50 μM test compound + 1 μM Retinol): 3.3%; activity at 50 µM (96 Well Plate, 50 μM test compound alone): 25.5% |
| CC(CCC(=O)NC(=O)Nc1ccccc1Sc1ccccc1CO)C1CCC2=C3CCC4CC(O)CCC4(C)C3CC(O)C21C (centres unmarked) [Compound A] | 64.8% | 68.5% | 60.8% | 71% | 88.8% | 84.2% | 84.5% | 77.4% | 73.9% | 76.1% | 62.7% | 64.6% | 70.2% |  | 68.5% | 73.4% |  |
| CC1=C(/C=C/C(C)=C/C=C/C(C)=C/CO)C(C)(C)CCC1 [Retinol, retinol, reference compound] |  |  |  |  |  |  |  |  |  |  |  |  |  |  |  |  | activity at 10 µM (Experiment A, 10 μM Retinol alone): 105%; activity at 1 µM (Experiment B, 1 μM Retinol alone): 98.1%; activity at 10 µM (Experiment B, 10 μM Retinol alone): 106%; activity at 1 µM (Table 7, 1 μM Retinol alone): 98.1%; activity at 10 µM (Table 7, 10 μM Retinol alone): 106% |
| CCOC(=O)c1ccc(NC(=O)Nc2ccc(O)cc2)cc1 [Compound F] |  |  |  |  |  |  |  |  |  |  |  |  |  | improved sebum suppressive activity |  |  | % of Control [16]: 67.3%; % of Control [1]: 65.8%; % of Control [2]: 84.7%; % of Control [17]: 66.2%; % of Control [3]: 53.7%; % of Control [4]: 82.7% |
| O=C(Nc1ccc(O)cc1)Nc1cccc(C(F)(F)F)c1 [Compound E] | 46.4% | 66.4% | 2.3% | 50% |  |  |  | 67.2% | 54.2% | 97.3% | 49.8% | 2.1% | 66.4% | improved sebum suppressive activity | 75.1% | 32% |  |
| CC(CCC(=O)N1CCN(c2ccccc2)CC1)C1CCC2=C3CCC4CC(O)CCC4(C)C3CC(O)C21C (centres unmarked) [Compound B] | 66.2% | 88.1% | 7.2% | 25.6% | 81.7% | 84.8% | 87.9% | 69.1% | 69.9% | 68% | 0.3% | 0.3% | 0.3% |  | 80% | 8.7% |  |
